Test results: patent US20060111305A1, “Metabolites of certain [1,4]diazepino[6,7,1-ij]quinoline derivatives and methods of preparation and use thereof” (Wyeth, priority 2004, published 2006)
Where a name gives a salt, the structure may show the parent alone. Read-outs that look alike come from different tables or passages of the source. Marks after values point to notes of the source that are not given here.

Legend:
[1] = Rat plasma metabolite profiles after single oral 5 mg/kg [14C]DCDQ; assay type: in vivo, Sprague-Dawley rats; settings: for concentration at 2 h / concentration at 8 h / concentration at 4 h: Sprague-Dawley, rat, plasma, mean n = 3, read-out: Estimated plasma concentration in rats; for Chromatographic distribution of radioactivity in rat plasma / Estimated plasma concentration in rats: mean n = 3
Description: Plasma samples were analyzed for metabolite profiles by HPLC. Aliquots of 1.5 mL plasma were mixed with 3.0 mL methanol, placed on ice for about 10 minutes, and then centrifuged. The supernatant was transferred to a clean tube. The protein pellets were extracted once with 3.0 mL methanol. The supernatants from precipitation and extraction of each sample were pooled, mixed, and evaporated at 22° C. under nitrogen in a Zymark TurboVap LV (Caliper Life Sciences, Hopkinton, Mass.) to about 0.3 mL. The concentrated extract was centrifuged, the supernatant volume measured and extraction efficiency was determined by analyzing duplicate 10 μL aliquots for radioactivity. An aliquot of the supernatant (50-200 μL) was analyzed by HPLC with radioactivity flow detection. Plasma extracts were also analyzed by LC/MS.
(§1) A Waters model 2690 HPLC system (Waters Corp., Milford, Mass.) with a built-in autosampler was used for analysis. Separations were accomplished on a Phenomenex Luna C18(2) column (150×2.0 mm, 5 μm) (Phenomenex, Torrance, Calif.). The sample chamber of the autosampler was maintained at 4° C., while the column was at ambient temperature of about 20° C. A variable wavelength UV detector set to monitor 250 nm and a Flo-One β Model A525 radioactivity detector described above were used for data acquisition. The HPLC mobile phase consisted of 10 mM ammonium acetate, pH 4.5 (A) and methanol (B), and was delivered at 0.2 mL/min. Chromatographic condition A was used for dose analysis, while condition B was used for analysis of urine and plasma, brain and fecal extracts.

[2] = Rat urinary excretion and metabolite profiles after single oral 5 mg/kg [14C]DCDQ; assay type: in vivo, Sprague-Dawley rats; settings: oral 5 mg/kg, mean n = 3
Description: (§2) At sacrifice, blood samples were collected by cardiac puncture into tubes containing EDTA as the anticoagulant and placing them on ice. Aliquots of 50 μL were removed for combustion and determination of radioactivity content. Plasma was immediately obtained from the remaining blood by centrifugation at 4° C. Brains were excised after perfusion with 50 mL of chilled sterile saline. Urine samples were collected on dry ice at intervals of 0-8 and 8-24 hour post-dosing. Feces were collected at intervals of 0-8 and 8-24 hr post-dosing at room temperature and were homogenized as described previously. The biological specimens and aliquots of the dosing solution at pre- and post-dose were stored at approximately −70° C. until analyzed.
Plasma (20 μL) and urine (50 μL) aliquots were analyzed for radioactivity concentrations. Radioactivity determinations of dose, plasma and urine were made with a Tri-Carb Model 3100 TR/LL liquid scintillation counter (LSC) (Perkin Elmer) using 10 mL of Ultima Gold as the scintillation fluid.
Urine was analyzed for radioactivity concentration as and analyzed for metabolite profiles by direct injection onto the HPLC column. LC/MS analyses for metabolite identification were also carried out with urine samples.
as §1

[3] = Metabolites of DCDQ identified in rats by LC/MS analysis (Table 18); assay type: in vivo, Sprague-Dawley rats; settings: P = plasma, U = urine, B = brain, F = feces
Description: An Agilent Model 1100 HPLC system (Agilent Technologies, Wilmington, Del.) including an autosampler and diode array UV detector was used for LC/MS analysis of plasma and urine samples. The UV detector was set to monitor 200 to 400 nm. For selected LC/MS analyses, radiochromatograms were acquired using a β-Ram model 3 radioactivity flow detector (IN/US Systems Inc., Tampa, Fla.) equipped with a solid scintillant flow cell. Fecal samples were also analyzed using a Waters Alliance model 2690 HPLC system. It was equipped with a built-in autosampler and a model 996 diode array UV detector set to 210-350 nm. The HPLC flow was split between a Radiomatic model 150TR flow scintillation analyzer (Perkin Elmer) and the mass spectrometer. Other HPLC conditions were the same as condition B described above.
The mass spectrometer used for metabolite characterization for plasma and urine was a Micromass Q-TOF-2 quadrupole time-of-flight hybrid mass spectrometer (Waters). The mass spectrometer was equipped with an electrospray ionization (ESI) interface and operated in the positive ionization mode. Collision energy settings of 5 and 30 eV were used for full MS and MS/MS scans, respectively. Settings for the mass spectrometer are listed below.
A Micromass Quattro Micro mass spectrometer (Waters) was also used to analyze the fecal samples. It was equipped with an electrospray ionization (ESI) interface and operated in the positive ionization mode. Settings for the mass spectrometer are listed below.
LC/MS/MS in the selected reaction-monitoring (SRM) mode (LC/SRM) was conducted with the triple quadruple mass spectrometer to monitor DCDQ and its metabolites in fecal samples. The transitions monitored are listed below.

[4] = Rat fecal excretion and metabolite profiles after single oral 5 mg/kg [14C]DCDQ; assay type: in vivo, Sprague-Dawley rats; settings: male rats, 8-24 hour fecal extracts
Description: as §2
Brain and fecal samples were weighed and homogenized in water at volume-to-weight ratios of about 1:1 and 5:1, respectively. Blood aliquots (50 μL), brain homogenates (0.1 gram) and fecal homogenates (0.2 gram) were placed on Combusto-cones with Combusto-pads and combusted. A model 307 Tri-Carb Sample Oxidizer, equipped with an Oximate-80 Robotic Automatic Sampler (Perkin Elmer), was used for combustion. The liberated ^14CO2 was trapped with Carbo-Sorb E carbon dioxide absorber, mixed with PermaFluor® E+ liquid scintillation cocktail, and counted in a Tri-Carb Model 3100 TR/LL liquid scintillation counter (Perkin Elmer). The oxidation efficiency of the oxidizer was 98.2%.
(§3) Fecal homogenates were analyzed for metabolite profiles. Aliquots of 1 gram of fecal homogenates were mixed with 2 mL methanol, placed on ice for about 10 minutes and centrifuged. The supernatant was transferred to a clean tube. The residue was extracted three times with 2 mL of a water:methanol (3:7) mixture. The supernatants of each sample were combined, evaporated to about 1 mL, and centrifuged. Extraction efficiency was determined by analyzing aliquots of 10 μL of the supernatant for radioactivity. An aliquot (50-200 μL) of the supernatant was analyzed by HPLC with radioactivity flow detection for profiling. Samples were also analyzed by LC/MS to characterize the radioactive peaks.
as §1, with “Chromatographic condition A was used for dose analysis, while condition B was used for analysis of urine and plasma, brain and fecal extracts.” left out

[5] = Dog fecal excretion and metabolite profiles after oral capsule of [14C]DCDQ; assay type: in vivo, beagle dogs
Description: Blood samples were collected from the jugular vein at 2, 4, 8, 24 and 48 hour after dose administration into tubes containing potassium EDTA as the anticoagulant and then placed on ice. Aliquots of 50 μL were removed for combustion and determination of radioactivity content. Plasma was immediately obtained from the remaining blood by centrifugation at 4° C. Urine samples were collected into tubes on dry ice at intervals of 0-8, 8-24 and 24-48 hour post-dose. Fecal samples were collected at intervals of 0-8, 8-24 and 24-48 hour post-dose at room temperature, and were homogenized. The biological specimens were stored at approximately −70° C. until analysis.
Feces were weighed and homogenized in water at a volume-to-weight ratio of about 5:1. Aliquots of blood (200 μL) and fecal homogenates (0.25-0.53 gram) were placed on Combusto-cones with Combusto-pads and combusted. A model 307 Tri-Carb sample oxidizer, equipped with an Oximate-80 robotic automatic sampler (Perkin Elmer), was used for combustion of blood and fecal samples. The liberated ^14CO2 was trapped with Carbo-Sorb E carbon dioxide absorber, mixed with PermaFluor® E+ liquid scintillation cocktail, and counted on a Tri-Carb Model 3100 TR/LL liquid scintillation counter (Perkin Elmer). The efficiency of combustion was 98.9%.
as §3, with “fecal homogenate” for “fecal homogenates”, “supernatants from” for “supernatants of”, “for metabolite profiles.” for “for profiling.”
as §1, with “detector” for “detector described above”, “acetonitrile” for “methanol”

Row | concentration at 2 h ([1]; female, 2 hr) [ng/mL] | concentration at 8 h ([1]; female, 8 hr) [ng/mL] | concentration at 2 h ([1]; male, 2 hr) [ng/mL] | concentration at 4 h ([1]; male, 4 hr) [ng/mL] | concentration at 8 h ([1]; male, 8 hr) [ng/mL] | Chromatographic distribution of radioactivity in rat plasma ([1]; female, 2 hr) | Chromatographic distribution of radioactivity in rat plasma ([1]; female, 8 hr) | Chromatographic distribution of radioactivity in rat plasma ([1]; male, 2 hr) | Chromatographic distribution of radioactivity in rat plasma ([1]; male, 4 hr) | Chromatographic distribution of radioactivity in rat plasma ([1]; male, 8 hr) | Matrix [3] | Estimated plasma concentration in rats ([1]; male, 2 hr) | Estimated plasma concentration in rats ([1]; male, 4 hr) | Estimated plasma concentration in rats ([1]; male, 8 hr) | Structure (SMILES) | also measured
1 | 35.2 | 18.9 | 23.7 | 9.81 | 13.2 | 5.2% | 5.6% | 3.6% | 1.5% | 3.0% | U, B, F | – | – | – | OC1CNCc2cccc3c2N1C[C@@H]1CCC[C@H]31 (some centres unmarked) [Metabolite M10, hydroxy DCDQ] | Chromatographic distribution of radioactivity in male rat urine ([2]; 0-8 hr): 3.32%; Percentage of dose for urinary metabolites in rats ([2]; 0-8 hr): 1.08%; Percentage of dose for urinary metabolites in rats ([2]; 0-24 hr): 1.99%; Chromatographic distribution of radioactivity in male rat urine ([2]; 8-24 hr): 2.70%; Percentage of dose for urinary metabolites in rats ([2]; 8-24 hr): 0.91%
2 | 33.8 | 11.8 | – | – | – | 5.2^e % | 3.3% | BQL^c | BQL | BQL | P, U | BQL^c | BQL | BQL | O=S(=O)(O)N1CCN2C[C@@H]3CCC[C@@H]3c3cccc(c32)C1 [Metabolite M12, DCDQ sulfamate] | –

Continued, compound first:

Row | Structure (SMILES) | concentration at 2 h ([1]; female, 2 hr) [ng/mL] | concentration at 8 h ([1]; female, 8 hr) [ng/mL] | concentration at 2 h ([1]; male, 2 hr) [ng/mL] | concentration at 4 h ([1]; male, 4 hr) [ng/mL] | concentration at 8 h ([1]; male, 8 hr) [ng/mL] | Chromatographic distribution of radioactivity in rat plasma ([1]; female, 2 hr) | Chromatographic distribution of radioactivity in rat plasma ([1]; female, 8 hr) | Chromatographic distribution of radioactivity in rat plasma ([1]; male, 2 hr) | Chromatographic distribution of radioactivity in rat plasma ([1]; male, 4 hr) | Chromatographic distribution of radioactivity in rat plasma ([1]; male, 8 hr) | Matrix [3] | Estimated plasma concentration in rats ([1]; male, 2 hr) | Estimated plasma concentration in rats ([1]; male, 4 hr) | Estimated plasma concentration in rats ([1]; male, 8 hr) | also measured
3 | CC(=O)N1Cc2cccc3c2N(C[C@@H]2CCC[C@H]32)C(O)C1 (some centres unmarked) [Metabolite M11, acetylated hydroxy DCDQ] | 41 | 16.6 | 37.2 | 34.5 | 16.3 | 6.1% | 4.9% | 6.0% | 5.2% | 3.6% | P, B, F | – | – | – | relative abundance in fecal extracts [4]: major metabolites
4 | O=S(=O)(O)OC1CC[C@@H]2c3cccc4c3N(CCNC4)CC12 (some centres unmarked) [Metabolite M13, 17-hydroxy DCDQ sulfate] | 16.6 | 5.62 | 11.6 | 14.2 | 6.33 | 2.6% | 1.6% | 1.9% | 2.2% | 1.4% | – | – | – | – | –
5 | O=S(=O)(O)N1CCN2CC3=CCC=C3c3cccc(c32)C1 [Metabolite M14, di-dehydro DCDQ sulfamate] | 25.1 | 16.5 | – | – | – | 4.0^d % | 4.9^d % | BQL | BQL | BQL | P, U | BQL | BQL) | BQL | –
6 | O=C1NCCN2C[C@@H]3CCC[C@@H]3c3cccc1c32 [Metabolite M18, keto DCDQ] | – | – | – | – | – | – | – | – | – | – | – | – | – | – | % of total radioactivity in fecal extracts [5]: up to 16.4%; metabolite detected in feces [5]: detected
